SMILES strings stand for the structures.

Consider 31 molecules from patent publication US20170305857A1, “N-ACYLPIPERIDINE ETHER TROPOMYOSIN-RELATED KINASE INHIBITORS” (Pfizer Limited, priority 2014, published 2017).

T1 sequence (P04629 441-796): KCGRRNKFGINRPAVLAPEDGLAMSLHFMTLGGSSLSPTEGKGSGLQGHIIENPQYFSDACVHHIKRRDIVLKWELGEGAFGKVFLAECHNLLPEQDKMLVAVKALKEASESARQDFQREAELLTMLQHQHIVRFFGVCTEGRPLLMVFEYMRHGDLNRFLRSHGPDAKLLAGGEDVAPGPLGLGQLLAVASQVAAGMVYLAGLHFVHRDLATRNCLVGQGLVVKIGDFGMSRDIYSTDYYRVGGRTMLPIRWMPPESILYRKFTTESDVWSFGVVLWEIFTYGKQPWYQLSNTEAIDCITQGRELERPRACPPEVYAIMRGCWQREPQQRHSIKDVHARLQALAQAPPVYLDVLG

The assay addresses T1, recombinant His-tagged cytoplasmic domains of TRKA receptor (NTRK1, PV3144, aa 441-796) (Homo sapiens, UniProt P04629).
T1 construct: aa 441-796; His; purchased Invitrogen PV3144
Put plainly: Isolated TRK enzyme assay (HTRF KinEASE-TK, PV3144 TrkA enzyme assay). As to conditions: 4 nM enzyme, 40 uM ATP, 35 min, arithmetic mean where more than one reading. It counts as biochemical. The essentials: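 Enzyme and ATP were preincubated with compound for 20 min at room temperature in buffer with 10 mM MgCl and 2 mM DTT. TK-substrate-Biotin was then added (1 uM final) and the reaction run for an enzyme-specific optimized time. Phosphorylation was read by HTRF, and IC50 values came from sigmoid fits of percent inhibition normalized to plate controls, averaged over replicate readings.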
In general terms: Time-resolved FRET reads energy transfer from a long-lived donor to a nearby acceptor.
Consider `NC(=O)c1cc(-c2cnn(CCO)c2)ccc1OC1CCN(C(=O)Cc2ccc(OC(F)(F)F)cc2)CC1` [Example 58, 5-[1-(2-hydroxyethyl)-1H-pyrazol-4-yl]-2-[(1-{[4-(trifluoromethoxy)phenyl]acetyl}piperidin-4-yl)oxy]benzamide], for which the IC50 amounted to 5.5 nM.

With `NCc1ccc(-c2ccc(OC3CCN(C(=O)Cc4ccc(OC(F)(F)F)cc4)CC3)c(C(N)=O)c2)cc1` [Example 105, 4′-(aminomethyl)-4-[(1-{[4-(trifluoromethoxy)phenyl]acetyl}piperidin-4-yl)oxy]biphenyl-3-carboxamide], the IC50 was 5 nM.

On to `Cn1cc(-c2ccc(OC3CCN(C(=O)Cc4ccc(OC(F)(F)F)cc4)CC3)c(C(N)=O)c2)c(C#N)n1` [Example 149, 5-(3-cyano-1-methyl-1H-pyrazol-4-yl)-2-[(1-{[4-(trifluoromethoxy)phenyl]acetyl}piperidin-4-yl)oxy]benzamide], for which the IC50 came to 13.7 nM.

Turning to `NC(=O)c1cc(-c2cccnc2)ccc1OC1CCN(C(=O)Cc2ccc(OC(F)(F)F)cc2)CC1` [Example 150, 5-(pyridin-3-yl)-2-[(1-{[4-(trifluoromethoxy)phenyl]acetyl}piperidin-4-yl)oxy]benzamide], the IC50 came out at 11 nM.

As for `Cn1ccc(-c2ccc(OC3CCN(C(=O)Cc4ccc(OC(F)(F)F)cc4)CC3)c(C(N)=O)c2)n1` [Example 148, 5-(1-methyl-1H-pyrazol-3-yl)-2-[(1-{[4-(trifluoromethoxy)phenyl]acetyl}piperidin-4-yl)oxy]benzamide], the IC50 came to 12.6 nM.

For the molecule `NC(=O)c1cc(-c2cn(CCO)nn2)ccc1OC1CCN(C(=O)Cc2ccc(OC(F)(F)F)cc2)CC1` [Example 174, 5-[1-(2-hydroxyethyl)-1H-1,2,3-triazol-4-yl]-2-[(1-{[4-(trifluoromethoxy)phenyl]acetyl}piperidin-4-yl)oxy]benzamide], the IC50 came to 19.1 nM.

For `NC(=O)c1cc(-c2cnn(CC3(O)COC3)c2)ccc1OC1CCN(C(=O)Cc2ccc(OC(F)(F)F)cc2)CC1` [Example 129, 5-{1-[(3-hydroxyoxetan-3-yl)methyl]-1H-pyrazol-4-yl}-2-[(1-{[4-(trifluoromethoxy)phenyl]acetyl}piperidin-4-yl)oxy]benzamide], the IC50 amounted to 6.9 nM.

For the molecule `Cc1cc(OC2CCN(C(=O)Cc3ccc(OC(F)(F)F)cc3)CC2)c(C(N)=O)cc1-c1cn(C)cn1` [Example 170, 4-methyl-5-(1-methyl-1H-imidazol-4-yl)-2-[(1-{[4-(trifluoromethoxy)phenyl]acetyl}piperidin-4-yl)oxy]benzamide], the IC50 is 17.6 nM.

With `NC(=O)c1cc(-c2c[nH]c(C3(F)COC3)n2)ccc1OC1CCN(C(=O)Cc2ccc(OC(F)(F)F)cc2)CC1` [Example 117, 5-[2-(3-fluorooxetan-3-yl)-1H-imidazol-4-yl]-2-[(1-{[4-(trifluoromethoxy)phenyl]acetyl}piperidin-4-yl)oxy]benzamide], the IC50 stood at 10.8 nM.

Consider `Cc1nc(-c2ccc(O[C@H]3CCN(C(=O)Cc4ccc(OC(F)(F)F)cc4)C[C@H]3F)c(C(N)=O)c2)c[nH]1` [Example 77, 2-{[(3R,4S)-3-fluoro-1-{[4-(trifluoromethoxy)phenyl]acetyl}pipertdin-4-yl]oxy}-5-(2-methyl-1H-imidazol-4-yl)benzamide], for which the IC50 came to 1.6 nM.

On to `Cn1cc(-c2ccc(OC3CCN(C(=O)Cc4ccc(OC5CC5)cc4)CC3)c(C(N)=O)c2)cn1` [Example 178, 2-[(1-{[4-(cyclopropyloxy)phenyl]acetyl}piperidin-4-yl)oxy]-5-(1-methyl-1H-pyrazol-4-yl)benzamide], for which the IC50 is 8.57 nM.

With `Cn1cc(-c2ccc(OC3CCN(C(=O)Nc4ccc(OC5CC5)cc4)CC3)c(C(N)=O)c2)cn1` [Example 181, 4-[2-carbamoyl-4-(1-methyl-1H-pyrazol-4-yl)phenoxy]-N-[4-(cyclopropyloxy)phenyl]piperidine-1-carboxamide], the half-inhibitory concentration (IC50) amounted to 19.3 nM.

As to `CC(C)(O)Cn1cc(-c2ccc(OC3CCN(C(=O)Cc4ccc(OC(F)(F)F)cc4)CC3)c(C(N)=O)c2)cn1` [Example 135], the IC50 stood at 3.9 nM.

Take `NC(=O)c1cc(-c2cn[nH]c2)ncc1O[C@H]1CCN(C(=O)Cc2ccc(OC(F)(F)F)cc2)C[C@H]1F` [Example 88, 5-{[(3R,4S)-3-fluoro-1-{[4-(trifluoromethoxy)phenyl]acetyl}piperidin-4-yl]oxy}-2-(1H-pyrazol-4-yl)pyridine-4-carboxamide]: the IC50 came out at 1.5 nM.

Take `NC(=O)c1cc(-c2cn(CCO)cn2)cnc1OC1CCN(C(=O)Cc2ccc(OC(F)(F)F)cc2)CC1` [Example 116, 5-[1-(2-hydroxyethyl)-1H-imidazol-4-yl]-2-[(1-{[4-(trifluoromethoxy)phenyl]acetyl}piperidin-4-yl)oxy]pyridine-3-carboxamide]: the IC50 amounted to 8.1 nM.

Take `CS(=O)(=O)Cn1cc(-c2cnc(OC3CCN(C(=O)Cc4ccc(OC(F)(F)F)c(F)c4)CC3)c(C(N)=O)c2)cn1` [Example 21, 2-[(1-{[3-fluoro-4-(trifluoromethoxy)phenyl]acetyl}piperidin-4-yl)oxy]-5-{1-[(methylsulfonyl)methyl]-1H-pyrazol-4-yl}pyridine-3-carboxamide]: the IC50 was 11 nM.

As to `CS(=O)(=O)Cn1cc(-c2cnc(O[C@H]3CCN(C(=O)Cc4ccc(OC5CC5)cc4)C[C@@H]3F)c(C(N)=O)c2)cn1` [Example 30, 2-{[(3S,4S)-1-{[4-(cyclopropyloxy)phenyl]acetyl}-3-fluoropiperidin-4-yl]oxy}-5-{1-[(methylsulfonyl)methyl]-1H-pyrazol-4-yl}pyridine-3-carboxamide], the IC50 is 4.8 nM.

With `CS(=O)(=O)Cn1cc(-c2cc(C(N)=O)c(O[C@H]3CCN(C(=O)Cc4ccc(OC(F)(F)F)cc4)C[C@@H]3F)cn2)cn1` [Example 166, 5-{[(3S,4S)-3-fluoro-1-{[4-(trifluoromethoxy)phenyl]acetyl}piperidin-4-yl]oxy}-2-{1-[(methylsulfonyl)methyl]-1H-pyrazol-4-yl}pyridine-4-carboxamide], the IC50 amounted to 12.8 nM.

Consider `C[C@@H](O)Cn1cc(-c2ccc(OC3CCN(C(=O)Cc4ccc(OC(F)(F)F)cc4)CC3)c(C(N)=O)c2)cn1` [Example 133], for which the IC50 was found to be 2.6 nM.

For the molecule `CS(=O)(=O)Cn1cc(-c2cc(C(N)=O)c(O[C@H]3CCN(C(=O)Cc4ccc(OC5CC5)cc4)C[C@@H]3F)cn2)cn1` [Example 165, 5-{[(3S,4S)-1-{[4-(cyclopropyloxy)phenyl]acetyl}-3-fluoropiperidin-4-yl]oxy}-2-{1-[(methylsulfonyl)methyl]-1H-pyrazol-4-yl}pyridine-4-carboxamide], the IC50 is 15.9 nM.

As for `Cn1ncc(-c2cnc(O[C@@H]3CCN(C(=O)Cc4ccc(OC(F)(F)F)cc4)C[C@@H]3F)c(C(N)=O)c2)n1` [Example 154, 2-{[(3S,4R)-3-fluoro-1-{[4-(trifluoromethoxy)phenyl]acetyl}piperidin-4-yl]oxy}-5-(2-methyl-2H-1,2,3-triazol-4-yl)pyridine-3-carboxamide], the IC50 was 2.93 nM.

Consider `Cc1nc(-c2ccc(O[C@@H]3CCN(C(=O)Cc4ccc(OC(F)(F)F)cc4)C[C@@H]3F)c(C(N)=O)c2)c[nH]1` [Example 121], for which the IC50 was 1.5 nM.

For the molecule `CC(C)(CO)n1cc(-c2ccc(OC3CCN(C(=O)Cc4ccc(OC(F)(F)F)cc4)CC3)c(C(N)=O)c2)cn1` [Example 62, 5-[1-(1-hydroxy-2-methylpropan-2-yl)-1H-pyrazol-4-yl]-2-[(1-{[4-(trifluoromethoxy)phenyl]acetyl}piperidin-4-yl)oxy]benzamide], the 50% inhibitory concentration (IC50) came out at 4 nM.

With `NC(=O)c1cc(-c2cnn(CCO)c2)cnc1OC1CCN(C(=O)Cc2ccc(OC3CC3)cc2)CC1` [Example 176, 2-[(1-{[4-(cyclopropyloxy)phenyl]acetyl}piperidin-4-yl)oxy]-5-[1-(2-hydroxyethyl)-1H-pyrazol-4-yl]pyridine-3-carboxamide], the IC50 came out at 12.2 nM.

Take `NC(=O)c1cc(-c2cnn(C[C@@H](O)CO)c2)ccc1OC1CCN(C(=O)Cc2ccc(OC(F)(F)F)cc2)CC1` [Example 122]: the IC50 is 4.4 nM.

Consider `C[C@@H](N)c1ccc(-c2ccc(OC3CCN(C(=O)Cc4ccc(OC(F)(F)F)cc4)CC3)c(C(N)=O)c2)cc1` [Example 64, 4′-[(1R)-1-aminoethyl]-4-[(1-{[4-(trifluoromethoxy)phenyl]acetyl}piperidin-4-yl)oxy]biphenyl-3-carboxamide], for which the IC50 was determined as 2.8 nM.

Take `NC(=O)c1cc(-c2ccc3c(c2)CNS3(=O)=O)ccc1OC1CCN(C(=O)Cc2ccc(OC(F)(F)F)cc2)CC1` [Example 63, 5-(1,1-dioxido-2,3-dihydro-1,2-benzothiazol-5-yl)-2-[(1-{[4-(trifluoromethoxy)phenyl]acetyl}piperidin-4-yl)oxy]benzamide]: the IC50 was 6.7 nM.

On to `CC(C)(O)Cn1cc(-c2ccc(O[C@@H]3CCN(C(=O)Cc4ccc(OC5CC5)cn4)C[C@H]3F)c(C(N)=O)c2)cn1` (racemic) [Example 43], for which the IC50 worked out at 6.9 nM.

With `NC(=O)c1cc(-c2cnn(C3CS(=O)(=O)C3)c2)ccc1O[C@H]1CCN(C(=O)Cc2ccc(OC(F)(F)F)cc2)C[C@H]1F` [Example 76, 5-[1-(1,1-dioxidothietan-3-yl)-1H-pyrazol-4-yl]-2-{[(3R,4S)-3-fluoro-1-{[4-(trifluoromethoxy)phenyl]acetyl}pipertdin-4-yl]oxy}benzamide], the IC50 was 1.2 nM.

Turning to `Cn1cc(-c2cc(C(N)=O)c(O[C@H]3CCN(C(=O)Cc4ccc(OC(F)(F)F)cc4)C[C@H]3F)nn2)cn1` [Example 156, 3-{[(3R,4S)-3-fluoro-1-{[4-(trifluoromethoxy)phenyl]acetyl}piperidin-4-yl]oxy}-6-(1-methyl-1H-pyrazol-4-yl)pyridazine-4-carboxamide], the IC50 was found to be 4.16 nM.

`Cn1cnc(-c2ccc(O[C@H]3CCN(C(=O)Cc4ccc(OC5CC5)cc4)C[C@@H]3F)c(C(N)=O)c2)c1` [Example 42, 2-{[(3S,4S)-1-{[4-(cyclopropyloxy)phenyl]acetyl}-3-fluoropiperidin-4-yl]oxy}-5-(1-methyl-1H-imidazol-4-yl)benzamide]: the IC50 worked out at 3.1 nM.

Usually IC50 stands for the concentration that inhibits the measured activity by half.
